Laboratory results: patent publication US20210161840A1, “COMPOSITIONS AND METHODS FOR TREATMENT OF IRON OVERLOAD” (priority 2018, published 2021)

Experiments:
[1] = Keberle, 1964; cited from earlier work
[2] = Keberle, 1964; cited from earlier work; remark: listed apart in the source
[3] = Keberle, 1964; cited from earlier work; remark: listed apart in the source
[4] = Keberle, 1964; cited from earlier work; remark: listed apart in the source
[5] = test system: doxorubicin-induced cardiomyopathy; assay: Doxorubicin-induced cardiomyopathy in mice; format: in vivo, C57BL/6 mice
Procedure: The purpose of this study was to assess the protective effect of dexrazoxan or the zinc-dexrazoxan complex, administered with or without Ga-DFO, against doxorubicin-induced cardiomyopathy.
C57BL/6 mice are injected once with doxorubicin, 20 mg/kg, i.p., and then divided into the following 5 groups: Group 1: untreated; Group 2: treated with dexrazoxan single dose of 400 mg/kg i.v.; Group 3: treated with the zinc complex of dexrazoxan single dose of 100 mg/kg i.v.; Group 4: treated with the Ga-DFO complex 6 mg/kg, and Group 5: treated with the zinc complex of dexrazoxan single dose of 50 mg/kg i.v. together with Ga-DFO 4 mg/kg. The animals are monitored for 21 days, measuring their survival (Kaplan-Meier curves). On Day 21 the animals are sacrificed, and their hearts are assessed histologically for cardiac remodeling and hypertrophy (collagen % or area).

| Compound | relative stability constant of DFO complex with Fe(III) [1] | relative stability constant of DFO complex with Cu(II) [2] | relative stability constant of DFO complex with Zn(II) [3] | relative stability constant of DFO complex with Ga(III) [4] | survival ([5]; Day 15 after doxorubicin 20 mg/kg i.p., about 90% of untreated mice die) | collagen % of the area (cardiac histology) ([5]; Day 21 after doxorubicin 20 mg/kg i.p., untreated about 10-12%) |
| --- | --- | --- | --- | --- | --- | --- |
| CC(=O)N(O)CCCCCNC(=O)CCC(=O)N(O)CCCCCNC(=O)CCC(=O)N(O)CCCCCN [DFO, N′-[5-(acetyl-hydroxy-amino)pentyl]-N-[5-[3-(5-aminopentyl-hydroxy-carbamoyl)propanoylamino]pentyl]-N-hydroxy-butane diamide] | 10^31 | 10^14 | 10^11 | 10^28 |  |  |
| C[C@@H](CN1CC(=O)NC(=O)C1)N1CC(=O)NC(=O)C1 [dexrazoxan] |  |  |  |  | about 50% | about 9% |
